In the test the target is T1, human OX2R (Homo sapiens, UniProt O43614).
T1 construct: expressed in transfected cells; host or cells: CHO (Chinese hamster ovary) cells, grown under G418 selection
T1 sequence (O43614 1-444): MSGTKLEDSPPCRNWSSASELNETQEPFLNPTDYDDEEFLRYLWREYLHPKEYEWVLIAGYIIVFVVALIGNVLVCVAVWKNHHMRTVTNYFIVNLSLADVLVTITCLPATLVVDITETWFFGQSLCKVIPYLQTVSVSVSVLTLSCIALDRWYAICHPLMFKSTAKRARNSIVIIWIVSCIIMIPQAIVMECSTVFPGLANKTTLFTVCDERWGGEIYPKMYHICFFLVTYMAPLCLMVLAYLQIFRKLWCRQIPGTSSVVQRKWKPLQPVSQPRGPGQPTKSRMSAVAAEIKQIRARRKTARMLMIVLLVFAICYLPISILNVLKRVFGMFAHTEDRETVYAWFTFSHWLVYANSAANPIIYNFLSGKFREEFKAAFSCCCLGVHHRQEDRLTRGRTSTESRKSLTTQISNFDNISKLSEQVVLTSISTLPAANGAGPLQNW
In words: IP-One (IPOne) orexin receptor agonist assay in CHO cells expressing human OX2R. As to conditions: for EC50: CHO cells expressing human OX2R, IP-One IP-1 detection, 2 hours incubation, four parameter logistic fit, read-out: OX2R Potency, EC50; for % of reference agonist maximal effect: human OX2R, percentage of sample raw value/mean max effect (reference compound at 1 uM with 100% activity). In kind it is cell-based. An excerpt:
The utility of the compounds in accordance with the present invention as orexin receptor OX1R and/or OX2R agonists may be readily determined without undue experimentation by methodology well known in the art. Both the OX1R and/or OX2R G-coupled protein receptors (GPCRs) couple through the Gαq signaling pathway, which ultimately promotes calcium mobilization via inositol triphosphate (IP3) production. The half-life of IP-3 is relatively short, being rapidly metabolized to inositol monophosphate (IP-1), which can be readily detected using a commercially available assay kit (IP-One; Cisbio; cat #621PAPEC) coupled with a cell line expressing the target receptor(s) of interest. The utility of the compounds in accordance with the present invention as orexin receptor OX1R and/or OX2R agonists may be determined utilizing this assay.
In a typical experiment, the OX1 and OX2 receptor agonist activity is determined in accordance with the following general experimental method. Chinese hamster ovary (CHO) cells expressing human OX1R and/or the human OX2R were grown in Iscove's modified DMEM containing glutaMAX™, 1% G418, 100 U/mL penicillin, 100 μg/mL streptomycin and 10% heat-inactivated qualified fetal bovine serum (FBS). The OX2R cells were seeded at 10,000 cells/well/50 μL and the OX1R cells were seeded at 20,000 cells/well/50 μL into 384-well white tissue culture plates (Greiner; cat #781080). All cell/media reagents were from GIBCO-Invitrogen Corp. The seeded cell plate(s) were incubated at 37° C. with 5% CO2 and 85% humidity for 20-24 hours. On the day of the assay, assay-ready compound plates were prepared using an acoustic liquid handler (ECHO; Labcyte), which dispensed sufficient volume of test compound stock (10 mM in DMSO) or 100% DMSO to prepare 10 point, ½-log dilutions in a final volume of 202.5 nL/well in all test wells of a 384-well diamond plate (Labcyte). Following completion of assay-ready plates, importantly, the next three steps were performed with minimal delay: 1) 20 μl of 1× stimulation buffer was added to the compound plate using a Multidrop Combi (small cassette, Thermo Fisher Scientific cat #24073290); 2) culture medium was removed from the cell plate using the Bluewasher plate washer (gentle spin; BlueCatBio); 3) 14 μl of compound/stimulation buffer mixture was added to the cell plate using a Bravo liquid handler (Agilent) prior to incubating cell plates at 37° C. with 5% CO2 and 85% humidity for 1 or 2 hours (OX1R and OX2R, respectively). During this incubation, IP-one detection reagents were prepared (38:1:1 lysis buffer:D2:AB-cryptate reagents). Six μL of mixed detection reagents were added to the cell plate using a Multidrop Combi (small cassette, Thermo Fisher Scientific cat #24073290) and incubated 60 minutes at room temperature in the dark. Fluorescence signal was detected using an Envision plate reader (Perkin Elmer) [LANCE/DELFIA Dual Enh (Em: APC 665; Ex: Cy5 620)].
For each compound, data were fit to a four parameter logistic fit (ActivityBase software) and the EC50 was reported as the inflection point of the resulting curve. Percent effect for each test compound was determined as the percentage of sample raw value/mean max effect, where the mean max effect was derived from the mean raw value of 32 control wells per assay plate (using Orexin A (cat #003-30) at 1 μM for human OX1R and a reference compound at 1 uM with 100% activity previously established by comparison to Orexin A for human OX2R). The intrinsic orexin receptor agonist activity of a compound which may be used in the present invention may be determined by these assays.

One may read the EC50 as the concentration giving half of the maximal effect. Consider `CC(C)[C@H]1CC[C@@H](OC[C@H]2[C@@H](c3cc[nH]n3)CCCN2C(=O)C2CC2)CC1` (relative stereo) [Example 75, cyclopropyl((CIS)-2-((((CIS)-4-isopropylcyclohexyl)oxy)methyl)-3-(1H-pyrazol-3-yl)piperidin-1-yl)methanone], for which the 50% effective concentration (EC50) amounted to 3.63 µM and the “% of reference agonist maximal effect” value is 95.7%.
For `CC1CC1C(=O)N1CCC[C@H](c2cc[nH]n2)[C@@H]1CO[C@H]1CC[C@@H](C(C)C)CC1` (relative stereo) [Example 76, ((CIS)-2-((((CIS)-4-isopropylcyclohexyl)oxy)methyl)-3-(1H-pyrazol-3-yl)piperidin-1-yl)(2-methylcyclopropyl)methanone] the same measures were 4.13 µM and 94.6%.
In the case of `CC(C)(O)C(=O)N1CCC[C@H](c2cc[nH]n2)[C@@H]1CO[C@H]1CC[C@@H](c2ccccc2)CC1` (relative stereo) [Example 77, 2-hydroxy-2-methyl-1-((CIS)-2-((((CIS)-4-phenylcyclohexyl)oxy)methyl)-3-(1H-pyrazol-3-yl)piperidin-1-yl)propan-1-one], the 50% effective concentration (EC50) was 4.34 µM and the “% of reference agonist maximal effect” value was found to be 96.1%.
For `O=C(N1CCC[C@H](c2cc[nH]n2)[C@@H]1CO[C@H]1CC[C@@H](c2ccccc2)CC1)C1(O)CC1` (relative stereo) [Example 78, (1-hydroxycyclopropyl)((CIS)-2-((((CIS)-4-phenylcyclohexyl)oxy)methyl)-3-(1H-pyrazol-3-yl)piperidin-1-yl)methanone] the same measures were 4.43 µM and 92.6%.
For `CC(C)[C@H]1CC[C@@H](OC[C@H]2[C@@H](c3cc[nH]n3)CCCN2C(=O)C2CCC2)CC1` (relative stereo) [Example 79, cyclobutyl((CIS)-2-((((CIS)-4-isopropylcyclohexyl)oxy)methyl)-3-(1H-pyrazol-3-yl)piperidin-1-yl)methanone] the same measures were 5.31 µM and 83.2%.
In the case of `CC1(C(=O)N2CCC[C@H](c3cc[nH]n3)[C@@H]2CO[C@H]2CC[C@@H](c3ccccc3)CC2)CC1` (relative stereo) [Example 80, (1-methylcyclopropyl)((CIS)-2-((((CIS)-4-phenylcyclohexyl)oxy)methyl)-3-(1H-pyrazol-3-yl)piperidin-1-yl)methanone], the EC50 came to 5.55 µM and the “% of reference agonist maximal effect” value was found to be 87.5%.
In the same order, the values of `CC(C)[C@H]1CC[C@@H](OC[C@H]2[C@@H](c3cc[nH]n3)CCCN2C(=O)C2CC2(C)C)CC1` (relative stereo) [Example 81, (2,2-dimethylcyclopropyl)((CIS)-2-((((CIS)-4-isopropylcyclohexyl)oxy)methyl)-3-(1H-pyrazol-3-yl)piperidin-1-yl)methanone] are 5.65 µM and 70.0%.
For `CCC(=O)N1CCC[C@H](c2cc[nH]n2)[C@@H]1CO[C@H]1CC[C@@H](C(C)C)CC1` (relative stereo) [Example 82, 1-((CIS)-2-((((CIS)-4-isopropylcyclohexyl)oxy)methyl)-3-(1H-pyrazol-3-yl)piperidin-1-yl)propan-1-one] the same measures were 5.74 µM and 98.1%.
Consider `CC(C)[C@H]1CC[C@@H](OC[C@H]2[C@@H](c3cc[nH]n3)CCCN2C(=O)C2CCCC2)CC1` (relative stereo) [Example 83, cyclopentyl((CIS)-2-((((CIS)-4-isopropylcyclohexyl)oxy)methyl)-3-(1H-pyrazol-3-yl)piperidin-1-yl)methanone], for which the EC50 was determined as 7.08 µM and the “% of reference agonist maximal effect” value turned out to be 73.9%.
In the case of `C=CCC(=O)N1CCC[C@H](c2cc[nH]n2)[C@@H]1CO[C@H]1CC[C@@H](C(C)C)CC1` (relative stereo) [Example 84, 1-((CIS)-2-((((CIS)-4-isopropylcyclohexyl)oxy)methyl)-3-(1H-pyrazol-3-yl)piperidin-1-yl)but-3-en-1-one], the concentration for a half-maximal effect (EC50) turned out to be 7.14 µM and the “% of reference agonist maximal effect” value stood at 71.1%.
In the same order, the values of `C#CCCC(=O)N1CCC[C@H](c2cc[nH]n2)[C@@H]1CO[C@H]1CC[C@@H](C(C)C)CC1` (relative stereo) [Example 85, 1-((CIS)-2-((((CIS)-4-isopropylcyclohexyl)oxy)methyl)-3-(1H-pyrazol-3-yl)piperidin-1-yl)pent-4-yn-1-one] are 7.58 µM and 87%.
As for `C#CCCCC(=O)N1CCC[C@H](c2cc[nH]n2)[C@@H]1CO[C@H]1CC[C@@H](C(C)C)CC1` (relative stereo) [Example 86, 1-((CIS)-2-((((CIS)-4-isopropylcyclohexyl)oxy)methyl)-3-(1H-pyrazol-3-yl)piperidin-1-yl)hex-5-yn-1-one], the 50% effective concentration (EC50) was determined as 8.39 µM and the “% of reference agonist maximal effect” value stood at 64.7%.
For `COC(C)(C)C(=O)N1CCC[C@H](c2cc[nH]n2)[C@@H]1CO[C@H]1CC[C@@H](c2ccccc2)CC1` (relative stereo) [Example 87, 2-methoxy-2-methyl-1-((CIS)-2-((((CIS)-4-phenylcyclohexyl)oxy)methyl)-3-(1H-pyrazol-3-yl)piperidin-1-yl)propan-1-one] the same measures were 8.81 µM and 78.7%.
For `CC(C)[C@H]1CC[C@@H](OC[C@H]2[C@@H](c3cc[nH]n3)CCCN2C(=O)CCC2CC2)CC1` (relative stereo) [Example 88, 3-cyclopropyl-1-((CIS)-2-((((CIS)-4-isopropylcyclohexyl)oxy)methyl)-3-(1H-pyrazol-3-yl)piperidin-1-yl)propan-1-one] the same measures were 8.98 µM and 79%.
For `CC1(C)C[C@H]1C(=O)N1CCC[C@H](c2cc[nH]n2)[C@@H]1COC1CCC(c2ccccc2)CC1` (relative stereo) [Example 91, ((R)-2,2-dimethylcyclopropyl)((CIS)-2-((((CIS)-4-phenylcyclohexyl)oxy)methyl)-3-(1H-pyrazol-3-yl)piperidin-1-yl)methanone] the same measures were 6.7 µM and 81%.
As to `O=C(C1CC1(F)F)N1CCC[C@H](c2cc[nH]n2)[C@@H]1CO[C@H]1CC[C@@H](c2ccccc2)CC1` (relative stereo) [Example 92, (2,2-difluorocyclopropyl)((CIS)-2-((((CIS)-4-phenylcyclohexyl)oxy)methyl)-3-(1H-pyrazol-3-yl)piperidin-1-yl)methanone], the half-maximal effective concentration (EC50) amounted to 6.9 µM and the “% of reference agonist maximal effect” value was 88.6%.
For `CC(C)[C@H]1CC[C@@H](OC[C@H]2[C@@H](c3cc[nH]n3)CCCN2C(=O)OCc2ccccc2Cl)CC1` (relative stereo) [Example 93, 2-chlorobenzyl (CIS)-2-((((CIS)-4-isopropylcyclohexyl)oxy)methyl)-3-(1H-pyrazol-3-yl)piperidine-1-carboxylate] the same measures were 5.22 µM and 28.5%.

Values taken from patent publication US12552767B2, “3-heteroaryl pyrrolidine and piperidine orexin receptor agonists” (Merck Sharp & Dohme LLC, priority 2020, dated 2026).
